The test system of one series is HIV-1 WT strain (IIIB). In words: Anti-HIV activity against WT HIV-1. Particulars: WT HIV-1 IIIB.
Series [1] in a line: Cytotoxicity in mock-infected MT-4 cells, MTT method. The series is classed as cell-based. Particulars: human, mock-infected MT-4 cells, CC50, mock-infected MT-4 cells.
The test system of series [2] is HIV-1 mutant strain L100I. In words: microbe, parasite or virus in culture. The series is classed as cell-based. Particulars: Human immunodeficiency virus 1, MT4, read-out: EC50 L100I.
In series [3] the test system is HIV-1 mutant strain E138K. In words: microbe, parasite or virus in culture. The format is cell-based. Particulars: Human immunodeficiency virus 1, MT4, read-out: EC50 E138K.
Series [4] concerns HIV-1 mutant strain RES056 (K103N + Y181C). In words: microbe, parasite or virus in culture. The format is cell-based. Particulars: Human immunodeficiency virus 1, MT4, read-out: EC50 RES056.
The subject of series [5] is HIV-1 mutant strain F227L + V106A. In words: microbe, parasite or virus in culture. The format is cell-based. Particulars: Human immunodeficiency virus 1, MT4, read-out: EC50 F227L + V106A.
The subject of series [6] is HIV-1 mutant strain Y181C. In words: microbe, parasite or virus in culture. Particulars: Human immunodeficiency virus 1, MT4, read-out: EC50 Y181C. The series is classed as cell-based.
Series [7] concerns HIV-1 mutant strain Y188L. In words: microbe, parasite or virus in culture. The series is classed as cell-based. Particulars: Human immunodeficiency virus 1, MT4, read-out: EC50 Y188L.
For series [8], the system named is HIV-1 mutant strain K103N. In words: microbe, parasite or virus in culture. Particulars: Human immunodeficiency virus 1, MT4, read-out: EC50 K103N. The series is classed as cell-based.

On to `Cc1cc(C)cc(S(=O)(=O)c2c(C(=O)NCCNS(=O)(=O)c3ccc(F)cc3)[nH]c3ccc(Cl)cc23)c1` [R4L2, 5-Chloro-3-((3,5-dimethylphenyl)sulfonyl)-N-(2-((4-fluorophenyl)sulfonamido)ethyl)-1H-indole-2-carboxamide], for which the “SI IIIB (CC50/EC50 ratio)” value in the series on HIV-1 WT strain (IIIB) was above 7921. Moreover, the CC50 at 5 days in series [1] was above 222000 nM. Moreover, the EC50 in series [2] is 210 ± 36 nM; in [3], 370 ± 110 nM; in series [4] it was 3230 ± 18 nM; in series [5], 830 ± 120 nM; in [6], 370 ± 140 nM; in series [7], 3000 ± 53 nM. Also, the EC50 in series [8] amounted to 360 ± 160 nM.
Turning to `Cc1cc(C)cc(S(=O)(=O)c2c(C(=O)NCCCNS(=O)(=O)c3ccc(F)cc3)[nH]c3ccc(Cl)cc23)c1` [R4L3, 5-Chloro-3-((3,5-dimethylphenyl)sulfonyl)-N-(3-((4-fluorophenyl)sulfonamido)propyl)-1H-indole-2-carboxamide], in the series with HIV-1 WT strain (IIIB), the “SI IIIB (CC50/EC50 ratio)” value came out at 901. The CC50 at 5 days in series [1] stood at 35000 ± 6970 nM. The EC50 amounted to 240 ± 35 nM in series [2]; 260 ± 17 nM in series [3]; 3550 ± 350 nM in [4]; 1040 ± 35 nM in [5]; 690 ± 17 nM in series [6]; 2840 ± 52 nM in series [7]. Moreover, the EC50 in series [8] amounted to 450 ± 100 nM.
In the case of `Cc1cc(C)cc(S(=O)(=O)c2c(C(=O)NCCCCNS(=O)(=O)c3ccc(F)cc3)[nH]c3ccc(Cl)cc23)c1` [R4L4, 5-Chloro-3-((3,5-dimethylphenyl)sulfonyl)-N-(4-((4-fluorophenyl)sulfonamido)butyl)-1H-indole-2-carboxamide], the “SI IIIB (CC50/EC50 ratio)” value in the series with HIV-1 WT strain (IIIB) is >10,593. In series [1], this compound gave a CC50 at 5 days above 211000 nM. Further, the EC50 is 56 ± 36 nM in [2]; 63 ± 3 nM in series [3]; above 211000 nM in series [4]; 290 ± 120 nM in series [5]; 200 ± 34 nM in series [6]; 1270 ± 200 nM in series [7]. In [8], the EC50 was 190 ± 51 nM.
Regarding `Cc1cc(C)cc(S(=O)(=O)c2c(C(=O)NCCCCCNS(=O)(=O)c3ccc(F)cc3)[nH]c3ccc(Cl)cc23)c1` [R4L5, 5-Chloro-3-((3,5-dimethylphenyl)sulfonyl)-N-(5-((4-fluorophenyl)sulfonamido)pentyl)-1H-indole-2-carboxamide], the “SI IIIB (CC50/EC50 ratio)” value with HIV-1 WT strain (IIIB) stood at 7527. The compound also registered a 50% cytotoxic concentration (CC50) at 5 days in series [1] of 144000 ± 13200 nM. Further, the EC50 in series [2] is 74 ± 10 nM; in series [3], 73 ± 20 nM; in series [4], above 31200 nM; in [5], 380 ± 17 nM; in series [6], 180 ± 17 nM; in series [7], 1670 ± 350 nM. In addition, the EC50 in [8] turned out to be 510 ± 210 nM.
Consider `Cc1cc(C)cc(S(=O)(=O)c2c(C(=O)NCCNS(=O)(=O)c3ccc(C#N)cc3)[nH]c3ccc(Cl)cc23)c1` [R5L2, 5-Chloro-3-((3,5-dimethylphenyl)sulfonyl)-N-(2-((4-cyanophenyl)sulfonamido)ethyl)-1H-indole-2-carboxamide], for which the “SI IIIB (CC50/EC50 ratio)” value with HIV-1 WT strain (IIIB) was found to be 362. The compound further yielded a CC50 at 5 days in series [1] of 23600 ± 580 nM. Also, the EC50 in series [2] turned out to be 770 ± 35 nM; in [3] it was 1260 nM; in series [4] it was 3370 ± 210 nM; in [5], 1750 ± 53 nM; in series [6], 890 ± 18 nM; in series [7] it was 3070 ± 120 nM. The EC50 in series [8] came out at 840 ± 35 nM.
Regarding `Cc1cc(C)cc(S(=O)(=O)c2c(C(=O)NCCCNS(=O)(=O)c3ccc(C#N)cc3)[nH]c3ccc(Cl)cc23)c1` [R5L3, 5-Chloro-3-((3,5-dimethylphenyl)sulfonyl)-N-(3-((4-cyanophenyl)sulfonamido)propyl)-1H-indole-2-carboxamide], in the series with HIV-1 WT strain (IIIB), the “SI IIIB (CC50/EC50 ratio)” value came out at 732. In addition, it took 22600 ± 890 nM to reach half-maximal cytotoxicity in series [1] (CC50 at 5 days). Besides, the EC50 was determined as 330 ± 34 nM in series [2]; 270 ± 17 nM in [3]; 4090 nM in series [4]; 1220 ± 51 nM in [5]; 980 ± 51 nM in series [6]; 3340 ± 17 nM in series [7]. The EC50 in [8] is 920 ± 410 nM.
Turning to `Cc1cc(C)cc(S(=O)(=O)c2c(C(=O)NCCCCNS(=O)(=O)c3ccc(C#N)cc3)[nH]c3ccc(Cl)cc23)c1` [R5L4, 5-Chloro-3-((3,5-dimethylphenyl)sulfonyl)-N-(4-((4-cyanophenyl)sulfonamido)butyl)-1H-indole-2-carboxamide], in the series with HIV-1 WT strain (IIIB), the “SI IIIB (CC50/EC50 ratio)” value was determined as 279. Moreover, the CC50 at 5 days in [1] is 4580 ± 3530 nM. Also, the EC50 is 25 ± 2 nM in series [2]; 32 ± 18 nM in series [3]; above 4580 nM in [4]; 82 ± 35 nM in series [5]; 54 ± 2 nM in series [6]; 150 ± 10 nM in [7]. In addition, in series [8], the EC50 is 67 ± 5 nM.
Turning to `Cc1cc(C)cc(S(=O)(=O)c2c(C(=O)NCCCCCNS(=O)(=O)c3ccc(C#N)cc3)[nH]c3ccc(Cl)cc23)c1` [R5L5, 5-Chloro-3-((3,5-dimethylphenyl)sulfonyl)-N-(5-((4-cyanophenyl)sulfonamido)pentyl)-1H-indole-2-carboxamide], the “SI IIIB (CC50/EC50 ratio)” value in the series on HIV-1 WT strain (IIIB) was above 6158. The compound also displayed a CC50 at 5 days in [1] above 204000 nM. Moreover, the EC50 worked out at 77 ± 23 nM in [2]; 160 ± 16 nM in series [3]; 11900 ± 4900 nM in [4]; 340 ± 82 nM in series [5]; 210 nM in series [6]; 1700 ± 520 nM in series [7]. Moreover, in series [8], the concentration for a half-maximal effect (EC50) was 560 ± 130 nM.
For the compound `Cc1cc(C)cc(S(=O)(=O)c2c(C(=O)NCCNS(=O)(=O)c3ccc(Br)cc3)[nH]c3ccc(Cl)cc23)c1` [R6L2, 5-Chloro-3-((3,5-dimethylphenyl)sulfonyl)-N-(2-((4-bromophenyl)sulfonamido)ethyl)-1H-indole-2-carboxamide], the “SI IIIB (CC50/EC50 ratio)” value with HIV-1 WT strain (IIIB) was 964. This compound also registered a CC50 at 5 days in series [1] of 151000 ± 19300 nM. Further, the EC50 in series [2] was 750 ± 64 nM; in series [3] it was 1270 ± 110 nM; in series [4] it was at least 12200 nM; in series [5] it was 2730 ± 480 nM; in series [6] it was 1010 ± 32 nM; in series [7], at least 33700 nM. Moreover, the EC50 in series [8] was determined as 950 ± 160 nM.
For the compound `Cc1cc(C)cc(S(=O)(=O)c2c(C(=O)NCCCNS(=O)(=O)c3ccc(Br)cc3)[nH]c3ccc(Cl)cc23)c1` [R6L3, 5-Chloro-3-((3,5-dimethylphenyl)sulfonyl)-N-(3-((4-bromophenyl)sulfonamido)propyl)-1H-indole-2-carboxamide], the “SI IIIB (CC50/EC50 ratio)” value in the series on HIV-1 WT strain (IIIB) is 645. Also, it took 88100 ± 18100 nM to reach half-maximal cytotoxicity in series [1] (CC50 at 5 days). Besides, the EC50 in [2] was 780 ± 140 nM; in series [3], 470 ± 200 nM; in [4], above 88100 nM; in series [5], 1480 ± 110 nM; in series [6], 1320 ± 190 nM; in [7], 5260 ± 1040 nM. For the same compound, in [8], the EC50 turned out to be 1040 ± 190 nM.
Turning to `Cc1cc(C)cc(S(=O)(=O)c2c(C(=O)NCCCCNS(=O)(=O)c3ccc(Br)cc3)[nH]c3ccc(Cl)cc23)c1` [R6L4, 5-Chloro-3-((3,5-dimethylphenyl)sulfonyl)-N-(4-((4-bromophenyl)sulfonamido)butyl)-1H-indole-2-carboxamide], in the series on HIV-1 WT strain (IIIB), the “SI IIIB (CC50/EC50 ratio)” value worked out at 347. In series [1], the CC50 at 5 days turned out to be 26900 ± 16900 nM. In addition, the EC50 was 320 ± 150 nM in series [2]; 780 ± 540 nM in series [3]; above 26900 nM in series [4]; 510 ± 92 nM in [5]; 600 ± 31 nM in series [6]; 1000 ± 150 nM in series [7]. Further, in series [8], the EC50 came out at 690 ± 110 nM.
With `Cc1cc(C)cc(S(=O)(=O)c2c(C(=O)NCCCCCNS(=O)(=O)c3ccc(Br)cc3)[nH]c3ccc(Cl)cc23)c1` [R6L5, 5-Chloro-3-((3,5-dimethylphenyl)sulfonyl)-N-(5-((4-bromophenyl)sulfonamido)pentyl)-1H-indole-2-carboxamide], in the series on HIV-1 WT strain (IIIB), the “SI IIIB (CC50/EC50 ratio)” value was 501. Also, in [1], it took 37900 ± 6320 nM to reach half-maximal cytotoxicity (CC50 at 5 days). In addition, the EC50 in series [2] was 120 ± 39 nM; in [3] it was 320 ± 15 nM; in series [4], above 37900 nM; in [5], 680 ± 75 nM; in series [6], 350 nM; in [7], 2470 ± 30 nM. Moreover, the EC50 in series [8] came to 740 ± 90 nM.
For the compound `Cc1cc(C)cc(S(=O)(=O)c2c(C(=O)NCCNS(=O)(=O)c3ccc(Cl)cc3)[nH]c3ccc(Cl)cc23)c1` [R7L2, 5-Chloro-3-((3,5-dimethylphenyl)sulfonyl)-N-(2-((4-chlorophenyl)sulfonamido)ethyl)-1H-indole-2-carboxamide], the “SI IIIB (CC50/EC50 ratio)” value in the series on HIV-1 WT strain (IIIB) is 13,010. In addition, half-maximal cytotoxicity in series [1] (CC50 at 5 days) was put at 175000 ± 42800 nM. Also, the EC50 in [2] amounted to 170 ± 41 nM; in series [3] it was 360 ± 17 nM; in series [4] it was 3090 ± 500 nM; in series [5], 1040 ± 350 nM; in series [6], 310 ± 160 nM; in series [7] it was 2660 ± 170 nM. In addition, the EC50 in series [8] came out at 220 nM.
Take `Cc1cc(C)cc(S(=O)(=O)c2c(C(=O)NCCCNS(=O)(=O)c3ccc(Cl)cc3)[nH]c3ccc(Cl)cc23)c1` [R7L3, 5-Chloro-3-((3,5-dimethylphenyl)sulfonyl)-N-(3-((4-chlorophenyl)sulfonamido)propyl)-1H-indole-2-carboxamide]: in the series on HIV-1 WT strain (IIIB), the “SI IIIB (CC50/EC50 ratio)” value is on record as >12,913. In [1], this compound registered a CC50 at 5 days above 211000 nM. Besides, the EC50 amounted to 98 ± 52 nM in series [2]; 610 ± 120 nM in series [3]; 9000 ± 510 nM in [4]; 2610 ± 120 nM in series [5]; 570 ± 250 nM in [6]; 190 ± 190 nM in series [7]. Further, the EC50 in [8] came to 220 nM.

In general, CC50 refers to the concentration at which the toxic effect on the cells reaches its halfway point. As a reminder, the EC50 is the concentration giving half of the maximal effect.

For the origin of these results see PMC10326263 (Acta Pharmaceutica Sinica. B, 2023).
